Reference: ChEMBL document CHEMBL5303304, “EUbOPEN Chemogenomics Library - IncuCyte” (2023)

How the values were obtained:
Type in all cases: toxicity, cell-based
HEK-293T = assay: Incucyte cell viability with HEK293T; conditions: human, 10 µM, compound concentration 10 uM
Fibroblast = assay: Incucyte cell viability with human fibroblast; conditions: 10 µM, compound concentration 10 uM
U2OS = assay: Incucyte cell viability with U2OS; conditions: human, 10 µM, compound concentration 10 uM
Further: unitless GR value; below 1 slowed growth and below 0 cell loss.

SMILES | Growth Rate (HEK-293T; 0 h, replicate number 2) | Growth Rate (HEK-293T; 6 h, replicate number 1) | Growth Rate (HEK-293T; 6 h, replicate number 2) | Growth Rate (HEK-293T; 12 h, replicate number 1) | Growth Rate (HEK-293T; 12 h, replicate number 2) | Growth Rate (HEK-293T; 18 h, replicate number 1) | Growth Rate (HEK-293T; 24 h, replicate number 1) | Growth Rate (HEK-293T; 24 h, replicate number 2) | Growth Rate (Fibroblast; 6 h, replicate number 1) | Growth Rate (Fibroblast; 6 h, replicate number 2) | Growth Rate (Fibroblast; 12 h, replicate number 1) | Growth Rate (Fibroblast; 12 h, replicate number 2) | Growth Rate (Fibroblast; 18 h, replicate number 1) | Growth Rate (Fibroblast; 18 h, replicate number 2) | Growth Rate (Fibroblast; 24 h, replicate number 2) | Growth Rate (U2OS; 0 h, replicate number 1) | Growth Rate (U2OS; 6 h, replicate number 1) | Growth Rate (U2OS; 12 h, replicate number 1) | Growth Rate (U2OS; 18 h, replicate number 1) | Growth Rate (U2OS; 18 h, replicate number 2) | further results
COc1cc2c(NC3CCN(C(C)C)CC3)nc(C3CCCCC3)nc2cc1OCCCN1CCCC1 | -1 | -0.49 | -0.51 | -0.43 | -0.45 | -0.39 | -0.26 | -0.39 | -0.16 | -0.65 | -0.07 | -0.48 | -0.27 | -0.46 | -0.46 | -0.98 | 0.4 | 0.2 | 0.05 | -0.16 | Growth Rate (HEK-293T; 18 h, replicate number 2): -0.38; Growth Rate (Fibroblast; 24 h, replicate number 1): -0.35; Growth Rate (U2OS; 0 h, replicate number 2): 0.19; Growth Rate (U2OS; 6 h, replicate number 2): 0.03; Growth Rate (U2OS; 12 h, replicate number 2): -0.13; Growth Rate (U2OS; 24 h, replicate number 1): -0.01; Growth Rate (U2OS; 24 h, replicate number 2): -0.23
CN[C@@H]1CC[C@@H](c2ccc(Cl)c(Cl)c2)c2ccccc21.Cl | -1 | 0 | -0.43 | 0.01 | -0.18 | 0.17 | 0.2 | 0.07 | -0.46 | – | -0.24 | -0.45 | -0.26 | -0.33 | -0.2 | -0.9 | 0.8 | 0.75 | 0.81 | 0.41 | Growth Rate (HEK-293T; 18 h, replicate number 2): -0.04; Growth Rate (Fibroblast; 24 h, replicate number 1): -0.06; Growth Rate (U2OS; 0 h, replicate number 2): 0.34; Growth Rate (U2OS; 6 h, replicate number 2): 0.35; Growth Rate (U2OS; 12 h, replicate number 2): 0.04; Growth Rate (U2OS; 24 h, replicate number 1): 0.85; Growth Rate (U2OS; 24 h, replicate number 2): 0.45
OC(c1ccc(-c2ccc(CN3CCN(Cc4ccncc4)CC3)cc2)c(F)c1)(C(F)(F)F)C(F)(F)F | -0.93 | -0.1 | 0.22 | -0.03 | 0.08 | 0.02 | 0.09 | 0.29 | -0.31 | -0.55 | 0.07 | -0.38 | 0.24 | -0.18 | -0.02 | 0.44 | 0.85 | 0.84 | 0.93 | 0.78 | Growth Rate (HEK-293T; 18 h, replicate number 2): 0.23; Growth Rate (Fibroblast; 0 h, replicate number 1): 0.65; Growth Rate (Fibroblast; 24 h, replicate number 1): 0.39; Growth Rate (U2OS; 6 h, replicate number 2): 0.88; Growth Rate (U2OS; 24 h, replicate number 2): 0.71
CN[C@@H](C)C(=O)N[C@H](C(=O)N1CCC[C@H]1C(=O)N[C@H]1c2ccccc2C[C@H]1OCC#CC#CCO[C@@H]1Cc2ccccc2[C@@H]1NC(=O)[C@@H]1CCCN1C(=O)[C@@H](NC(=O)[C@H](C)NC)C1CCCCC1)C1CCCCC1 | -0.94 | 0.13 | 0.46 | -0.41 | -0.22 | -0.17 | -0.12 | 0.02 | – | – | 0.87 | – | 0.75 | 0.57 | 0.43 | 0.76 | 0.89 | – | 0.87 | 0.86 | Growth Rate (HEK-293T; 18 h, replicate number 2): 0.01; Growth Rate (Fibroblast; 24 h, replicate number 1): 0.63; Growth Rate (U2OS; 6 h, replicate number 2): 0.83; Growth Rate (U2OS; 12 h, replicate number 2): 0.86; Growth Rate (U2OS; 24 h, replicate number 1): 0.89
COc1cccc(Cn2cc(C(=O)Nc3ccc(C)c(S(=O)(=O)N4CCOCC4)c3)c(-c3ccc(C)cc3)n2)c1 | -0.05 | 0.76 | – | – | – | 0.99 | 0.96 | – | 0.43 | 0.77 | 0.7 | – | 0.89 | – | – | – | – | 0.96 | – | – | Growth Rate (Fibroblast; 0 h, replicate number 2): 0.55
CCN(C(=O)CO)[C@H]1CN(/C(=N\C#N)Nc2cccc(OC(F)F)c2)N=C1c1ccc(Cl)c(Cl)c1 | -0.6 | – | 0.79 | – | – | 0.96 | 0.91 | – | – | 0.31 | – | 0.8 | – | – | 0.98 | – | 1 | – | -0.52 | – | Growth Rate (Fibroblast; 0 h, replicate number 2): 0.47; Growth Rate (U2OS; 24 h, replicate number 1): -0.49
COc1cc(Cl)c(C(=O)N[C@@H](CN[C@H]2CC[C@@H](N)CC2)Cc2ccc(C#N)cc2)cc1-c1ccc(CN[C@H](C)c2ccc(C)cc2)o1 | -1 | -0.6 | -0.61 | -0.61 | -0.53 | -0.48 | -0.42 | -0.4 | -0.93 | -0.83 | -0.8 | -0.82 | -0.76 | -0.74 | -0.68 | -1 | -0.95 | -0.87 | -0.77 | -0.78 | Growth Rate (Fibroblast; 24 h, replicate number 1): -0.72; Growth Rate (U2OS; 0 h, replicate number 2): -0.99; Growth Rate (U2OS; 6 h, replicate number 2): -0.91; Growth Rate (U2OS; 12 h, replicate number 2): -0.86; Growth Rate (U2OS; 24 h, replicate number 1): -0.74; Growth Rate (U2OS; 24 h, replicate number 2): -0.76
CCOC(=O)C1Cc2ccccc2CN1C(=O)c1ccc(SC)s1 (stereo not given) | -0.82 | 0.05 | 0.28 | 0.12 | 0.49 | 0.47 | 0.41 | 0.5 | – | 0.06 | 0.66 | 0.1 | 0.58 | 0.63 | 0.67 | – | 0.96 | – | – | 0.98 | Growth Rate (HEK-293T; 18 h, replicate number 2): 0.5; Growth Rate (Fibroblast; 24 h, replicate number 1): 0.86; Growth Rate (U2OS; 6 h, replicate number 2): 0.87; Growth Rate (U2OS; 24 h, replicate number 2): 0.88
O=C1COc2cc(C(=O)N(Cc3ccc(C(=O)Nc4ccncn4)cc3)C3CC3)ccc2N1 | -0.63 | 0.38 | 0.01 | 0.74 | 0.42 | 0.75 | 0.95 | 0.72 | 0.36 | 0.55 | 0.28 | 0.88 | 0.54 | 0.79 | 0.98 | -0.53 | 0.39 | 0.37 | 0.61 | 0.77 | Growth Rate (HEK-293T; 18 h, replicate number 2): 0.66; Growth Rate (Fibroblast; 24 h, replicate number 1): 0.74; Growth Rate (U2OS; 0 h, replicate number 2): 0.72; Growth Rate (U2OS; 6 h, replicate number 2): 0.77; Growth Rate (U2OS; 12 h, replicate number 2): 0.8; Growth Rate (U2OS; 24 h, replicate number 1): 0.73; Growth Rate (U2OS; 24 h, replicate number 2): 0.87
Cc1ccc(NS(=O)(=O)c2ccc3c(c2)C2C=CCC2C(c2ccc(C(=O)O)cc2)N3)cc1C (stereo not given) | -0.87 | – | – | 0.89 | – | 0.79 | – | – | -0.66 | 0.01 | 0.86 | 0.36 | 0.83 | – | 0.72 | 0.88 | 0.79 | 0.82 | 0.87 | 0.99 | Growth Rate (Fibroblast; 0 h, replicate number 2): 0.82; Growth Rate (Fibroblast; 24 h, replicate number 1): 0.65; Growth Rate (U2OS; 24 h, replicate number 1): 0.93; Growth Rate (U2OS; 24 h, replicate number 2): 0.91
CC1CN(CC(=O)N2CC(C)(C)c3nc(CO)c(Cc4ccc(F)cc4)cc32)C(CN2CCOCC2C)CN1 (stereo not given) | -0.63 | 0.63 | 0.88 | – | 0.96 | – | – | 0.89 | 0.63 | 0.4 | – | 0.94 | 0.98 | 0.94 | 0.9 | -0.23 | – | – | – | – | –
CCC(=O)O[C@@H](OP(=O)(CCCCc1ccccc1)CC(=O)N1C[C@H](C2CCCCC2)C[C@H]1C(=O)[O-])C(C)C.[Na+] (stereo not given in full) | -1 | 0.41 | -0.23 | 0.66 | 0.04 | 0.77 | 0.84 | 0.49 | – | 0.94 | 0.72 | – | – | – | – | 0.02 | 0.56 | 0.78 | 0.78 | – | Growth Rate (HEK-293T; 18 h, replicate number 2): 0.29; Growth Rate (Fibroblast; 0 h, replicate number 2): -0.2; Growth Rate (U2OS; 24 h, replicate number 1): 0.77
COC(=O)c1sccc1S(=O)(=O)Nc1ccc(Nc2ccccc2)cc1OC | -0.92 | – | 0.93 | – | 0.77 | – | – | – | – | 0.48 | – | 0.47 | – | 0.95 | 0.74 | -0.11 | 0.61 | 0.91 | 0.81 | 0.9 | Growth Rate (Fibroblast; 0 h, replicate number 2): 0.71; Growth Rate (U2OS; 6 h, replicate number 2): 0.91; Growth Rate (U2OS; 24 h, replicate number 2): 0.82
